Experimental data from patent publication US4575498A, “Method for restoring depleted purine nucleotide pools” (priority 1983, dated 1986).

Columns and labels:
[1] = tested on: postischemic myocardium; assay: Myocardial nucleotide and creatine phosphate content, coronary occlusion and reperfusion; type: in vivo, dogs
Method: Catheters were placed in the left atrium and aorta, and a snare positioned around the left anterior descending coronary artery in 15 open-chest dogs. Regional myocardial blood flow was measured and transmural tissue samples were obtained using known techniques. Blood flow measurements and tissue samples were obtained prior to and just before release of a 12-minute coronary occlusion. The chest was closed and the animals allowed to awaken. Twenty-four hours later, the animals were anesthetized, the chest opened, blood flow measured, and tissue samples obtained. No hemodynamic measurements were made on the animals.
In seven animals, 200 mM AICAriboside (Sigma Chemical Co.) was infused into the left atrial catether at either 14 μmol/min (n=2) or 37 μmol/min (n=5) beginning with coronary occlusion and continuing for 24 hours. Eight control animals were infused with an equal volume of saline over 24 hours.
Nucleotide and creatine phosphate analyses were performed by high performance liquid chromatography on acid extracts of the tissue as previously described. Nucleotide analysis is described in Example 1, and creatine phosphate analysis is described in Juengling and Kammermeier, Anal. Biochem., 102, 358-361 (1980).
All comparisons between AICAriboside and saline treated animals were done by unpaired analyses.

[2] = tested on: cardiac muscle; assay: AICAriboside infusion in normal myocardium: nucleotide, nucleoside and base content of cardiac muscle biopsies; settings: for TAN: total adenine nucleotide
[3] = endo, 24 Hr postischemic (first column)
[4] = endo, 24 Hr postischemic (second column so headed)
[5] = epi, 24 Hr postischemic (first column)
[6] = epi, 24 Hr postischemic (second column so headed)
[7] = epi, 24 Hr postischemic (second column so headed), P < 0.05 vs saline
[8] = cardiac muscle, 10 min postinfusion
[9] = cardiac muscle, 10 min postinfusion, P < 0.05 vs control
[10] = cardiac muscle, 15 min of AICAriboside infusion
[11] = cardiac muscle, 20 min postinfusion
[12] = cardiac muscle, 20 min postinfusion, P < 0.05 vs control
[13] = cardiac muscle, 30 min of AICAriboside infusion
[14] = cardiac muscle, 30 min of AICAriboside infusion, P < 0.05 vs control
[15] = cardiac muscle, 30 min postinfusion
[16] = cardiac muscle, 30 min postinfusion, P < 0.05 vs control
[17] = cardiac muscle, 42 min of AICAriboside infusion
[18] = cardiac muscle, 60 min postinfusion

**Q.** Which results are given for `NC(=O)c1ncn([C@@H]2O[C@H](CO)[C@@H](O)[C@H]2O)c1N` [AICAriboside, 5-amino-4-imidazolecarboxamide riboside]?
**A.** GTP content restoration ([1]; 24 hours of reperfusion, saline 82% (epi), 78% (endo) of nonischemic levels): restored to nonischemic levels; ADP [1, 3]: 0.78 ± 0.09 μmol/g wet wt; AMP [1, 3]: 0.056 ± 0.019 μmol/g wet wt; CP (creatine phosphate) [1, 3]: 7.8 ± 1.1 μmol/g wet wt; CTP [1, 3]: 0.052 ± 0.005 μmol/g wet wt; NAD [1, 3]: 0.57 ± 0.02 μmol/g wet wt; UTP [1, 3]: 0.121 ± 0.013 μmol/g wet wt; IMP ([1]; endo, 24 Hr postischemic (first column), P < 0.05 vs saline): 0.027 ± 0.007 μmol/g wet wt; ADP [1, 4]: 0.75 ± 0.07 μmol/g wet wt; AMP [1, 4]: 0.041 ± 0.005 μmol/g wet wt; CP (creatine phosphate) [1, 4]: 6.9 ± 0.5 μmol/g wet wt; CTP [1, 4]: 0.056 ± 0.004 μmol/g wet wt; NAD [1, 4]: 0.60 ± 0.05 μmol/g wet wt; UTP [1, 4]: 0.106 ± 0.011 μmol/g wet wt; IMP ([1]; endo, 24 Hr postischemic (second column so headed), P < 0.05 vs saline): 0.017 ± 0.004 μmol/g wet wt; ADP ([1]; endo, occlusion): 0.86 ± 0.06 μmol/g wet wt; AMP ([1]; endo, occlusion): 0.089 ± 0.012 μmol/g wet wt; CP (creatine phosphate) ([1]; endo, occlusion): 2.0 ± 0.3 μmol/g wet wt; CTP ([1]; endo, occlusion): 0.016 ± 0.003 μmol/g wet wt; IMP ([1]; endo, occlusion): 0.008 ± 0.002 μmol/g wet wt; NAD ([1]; endo, occlusion): 0.45 ± 0.02 μmol/g wet wt; UTP ([1]; endo, occlusion): 0.055 ± 0.007 μmol/g wet wt; increase in ATP content ([1]; endo, previously ischemic region, 24 hours of reperfusion, saline 21%): 63%; ATP content vs saline-treated ([1]; epi and endo, previously ischemic region, 24 hours of reperfusion, P<0.001): greater in the AICAriboside group; ADP [1, 5]: 0.73 ± 0.05 μmol/g wet wt; AMP [1, 5]: 0.048 ± 0.009 μmol/g wet wt; CP (creatine phosphate) [1, 5]: 7.1 ± 0.5 μmol/g wet wt; CTP [1, 5]: 0.051 ± 0.004 μmol/g wet wt; NAD [1, 5]: 0.56 ± 0.03 μmol/g wet wt; UTP [1, 5]: 0.104 ± 0.121 μmol/g wet wt; IMP ([1]; epi, 24 Hr postischemic (first column), P < 0.05 vs saline): 0.025 ± 0.007 μmol/g wet wt; ADP [1, 6]: 0.70 ± 0.05 μmol/g wet wt; AMP [1, 6]: 0.036 ± 0.005 μmol/g wet wt; CP (creatine phosphate) [1, 6]: 7.8 ± 0.5 μmol/g wet wt; CTP [1, 6]: 0.051 ± 0.005 μmol/g wet wt; UTP [1, 6]: 0.096 ± 0.008 μmol/g wet wt; IMP [1, 7]: 0.015 ± 0.004 μmol/g wet wt; NAD [1, 7]: 0.55 ± 0.02 μmol/g wet wt; ADP ([1]; epi, occlusion): 0.99 ± 0.11 μmol/g wet wt; AMP ([1]; epi, occlusion): 0.135 ± 0.045 μmol/g wet wt; CP (creatine phosphate) ([1]; epi, occlusion): 2.9 ± 0.7 μmol/g wet wt; CTP ([1]; epi, occlusion): 0.023 ± 0.003 μmol/g wet wt; IMP ([1]; epi, occlusion): 0.007 ± 0.001 μmol/g wet wt; NAD ([1]; epi, occlusion): 0.47 ± 0.03 μmol/g wet wt; UTP ([1]; epi, occlusion): 0.061 ± 0.007 μmol/g wet wt; increase in ATP content ([1]; epi, previously ischemic region, 24 hours of reperfusion, saline 2%): 41%; GTP content vs saline ([1]; epicardium and endocardium of previously ischemic region, 24 hours of reperfusion, P<0.003): greater in the AICAriboside group; AMP or ADP content vs saline ([1]; postischemic region): no detectable differences; UTP, CTP, or NAD^+ content vs saline ([1]; postischemic region): no statistically significant differences; total adenine nucleotide content (ATP+ADP+AMP) vs saline ([1]; postischemic region): greater in the AICAriboside group; creatine phosphate content restoration ([1]; postischemic regions, both groups): restored to preocclusion levels; creatine phosphate fall at end of occlusion ([1]; vs saline): fell to a comparable extent; percentage drop in ATP during ischemia ([1]; vs saline): comparable in both groups; myocardial content of CTP ([2]; AICAriboside infusion): no detectable change; mean content of AICAriboside in cardiac muscle greater than that of skeletal muscle ([2]; after 30 min of infusion): 66%; adenylosuccinate in biopsies ([2]; before, during or after infusion, lower limit of detection 3 nmol/g, wet weight): not detectable; adenylate energy charge ([2]; cardiac muscle, 0.929±0.003 before infusion, during course of experiment): did not vary; ADP [2, 8]: 0.83 ± 0.05 μmol/g, wet weight; AMP [2, 8]: 0.054 ± 0.007 μmol/g, wet weight; Hyp (hypoxanthine) [2, 8]: 0.016 ± 0.008 μmol/g, wet weight; Ino (inosine) [2, 8]: 0.009 ± 0.001 μmol/g, wet weight; ATP [2, 9]: 6.07 ± 0.17 μmol/g, wet weight; IMP [2, 9]: 0.018 ± 0.003 μmol/g, wet weight; ADP [2, 10]: 0.77 ± 0.06 μmol/g, wet weight; AMP [2, 10]: 0.056 ± 0.008 μmol/g, wet weight; ATP [2, 10]: 5.77 ± 0.24 μmol/g, wet weight; IMP [2, 10]: 0.020 ± 0.007 μmol/g, wet weight; ADP [2, 11]: 0.81 ± 0.04 μmol/g, wet weight; AMP [2, 11]: 0.054 ± 0.005 μmol/g, wet weight; Hyp (hypoxanthine) [2, 11]: 0.007 ± 0.002 μmol/g, wet weight; IMP [2, 11]: 0.017 ± 0.005 μmol/g, wet weight; Ino (inosine) [2, 11]: 0.007 ± 0.001 μmol/g, wet weight; ATP [2, 12]: 5.83 ± 0.14 μmol/g, wet weight; ADP [2, 13]: 0.82 ± 0.03 μmol/g, wet weight; AMP [2, 13]: 0.050 ± 0.005 μmol/g, wet weight; Hyp (hypoxanthine) [2, 13]: 0.013 ± 0.006 μmol/g, wet weight; IMP [2, 13]: 0.030 ± 0.021 μmol/g, wet weight; Ino (inosine) [2, 13]: 0.012 ± 0.001 μmol/g, wet weight; ATP [2, 14]: 5.89 ± 0.16 μmol/g, wet weight; ADP [2, 15]: 0.84 ± 0.03 μmol/g, wet weight; AMP [2, 15]: 0.055 ± 0.006 μmol/g, wet weight; Hyp (hypoxanthine) [2, 15]: 0.003 ± 0.002 μmol/g, wet weight; Ino (inosine) [2, 15]: 0.009 ± 0.002 μmol/g, wet weight; ATP [2, 16]: 5.98 ± 0.07 μmol/g, wet weight; IMP [2, 16]: 0.016 ± 0.003 μmol/g, wet weight; ADP [2, 17]: 0.77 ± 0.03 μmol/g, wet weight; AMP [2, 17]: 0.053 ± 0.007 μmol/g, wet weight; ATP [2, 17]: 5.77 ± 0.28 μmol/g, wet weight; IMP ([2]; cardiac muscle, 42 min of AICAriboside infusion, P < 0.05 vs control): 0.019 ± 0.006 μmol/g, wet weight; ADP [2, 18]: 0.82 ± 0.04 μmol/g, wet weight; AMP [2, 18]: 0.052 ± 0.006 μmol/g, wet weight; ATP [2, 18]: 5.72 ± 0.27 μmol/g, wet weight; Hyp (hypoxanthine) [2, 18]: 0.001 ± 0.001 μmol/g, wet weight; Ino (inosine) [2, 18]: 0.006 ± 0.001 μmol/g, wet weight; IMP ([2]; cardiac muscle, 60 min postinfusion, P < 0.05 vs control): 0.017 ± 0.003 μmol/g, wet weight; increase in IMP content ([2]; cardiac muscle, AICAriboside infusion): 3-4 fold; maximum UTP content ([2]; cardiac muscle, from basal 0.126±0.009, p<0.005): 0.157±0.006 μmol/g, wet weight; guanine nucleotide content (GDP+GTP) ([2]; cardiac muscle, significant at one time point only): tended to increase; dogs with guanine nucleotide pool remaining elevated ([2]; cardiac muscle, up to 60 min after infusion discontinued): 6 of 7; adenosine content ([2]; cardiac or skeletal muscle, during infusion): did not increase; AMP and ADP content change ([2]; cardiac tissue, any time point): did not change significantly; increased ATP content ([2]; cardiac tissue, from 5.55±0.17, p<0.02): 6.07±0.17 μmol/g, wet weight; accumulation of AICAriboside-TP ([2]; cardiac vs skeletal muscle, quantitated with extinction coefficient of AICAR): greater in cardiac muscle; maximum TAN (total adenine nucleotide) ([2]; heart muscle, from basal 6.40±0.20, p<0.005): 6.96±0.20 μmol/g, wet weight; content of NAD^+ ([2]; heart, throughout infusion, did not vary): 0.64 ± 0.01 µmol/g; UTP pool increase ([2]; myocardial cells, following AICAriboside infusion): 25%; content of inosine and hypoxanthine ([2]; myocardial, throughout the study): only minimally increased; TAN [2, 9]: 6.96 ± 0.20 μmol/g, wet weight; TAN [2, 10]: 6.59 ± 0.29 μmol/g, wet weight; TAN [2, 12]: 6.70 ± 0.10 μmol/g, wet weight; TAN [2, 14]: 6.77 ± 0.16 μmol/g, wet weight; TAN [2, 16]: 6.87 ± 0.10 μmol/g, wet weight; TAN [2, 17]: 6.59 ± 0.27 μmol/g, wet weight; TAN [2, 18]: 6.59 ± 0.24 μmol/g, wet weight
